Measured values from patent publication US8883173B2 (priority 2007, dated 2014).
“Also recorded” adds a separate entry of the source. Square brackets hold non-standard residues; d marks the D form. Ends that are not written are not given here. NMeV = CN[C@H](C(=O)O)C(C)C

Columns and labels:
[1] = test system: sera from Map infected animals (anti-Map antibodies); type: binding, bovines and goats
[2] = test system: sera from M. bovis infected bovine; type: binding; details: read at 414 nm
[3] = test system: IgA, IgM, IgG1 or IgG2 antibodies in sera of Map infected animals; type: binding, bovines
[4] = test system: sera from M. avium subsp. avium-experimentally infected mouse; experiment: ELISA with sera from Mav experimentally infected mouse; type: binding; details: FIG. 4B
[5] = test system: sera from Mav- or Mai-infected human patients; type: binding

Compound: CCCCCCCCCCCCCCCCCCCC(=O)O [lipid moiety, eicosanoic acid, reference compound]
- recognition by sera of Map-infected animals, compared with L5P [1]: poorly recognized

Compound: AcNH-DPhe-NMeVal-Ile-Phe-Ala (Ac-[dF][NMeV]IFA) [compound 10]
- specific reaction with Map specific anti serum [1]: react specifically

Compound: AcNH-DPhe-NMeVal-Ile-Phe-Ala-OMe (Ac-[dF][NMeV]IFA-OMe; SMILES CC[C@H](C)[C@H](NC(=O)[C@H](C(C)C)N(C)C(=O)[C@@H](Cc1ccccc1)NC(C)=O)C(=O)N[C@@H](Cc1ccccc1)C(=O)N[C@@H](C)C(=O)OC) [Ac5P]
- recognition by sera of Map-infected animals, compared with L5P [1]: recognized as efficiently as the L5P; also recorded: In some cases, the pentapeptide was even better recognized than the whole L5P

Compound: AcNH-DPhe-Val-Ile-Phe-Ala-OMe (Ac-[dF]VIFA-OMe; SMILES CC[C@H](C)[C@H](NC(=O)[C@@H](NC(=O)[C@@H](Cc1ccccc1)NC(C)=O)C(C)C)C(=O)N[C@@H](Cc1ccccc1)C(=O)N[C@@H](C)C(=O)OC) [compound 8]
- specific reaction with Map specific anti serum [1]: react specifically

Compound: DPhe-NMeVal-Ile-Phe-Ala-OMe ([dF][NMeV]IFA-OMe) [compound 4]
- antigenic response (ranking among analogues) [1]: best antigenic response
- recognition by sera of Map-infected animals, compared with L5P [1]: recognized at least as efficiently
- sensitivity for detection of Map-specific antibodies compared to L5P (1) [1]: higher sensitivity
- specific reaction with Map specific anti serum [1]: react specifically

Compound: LipidC20-DPhe-NMeVal-Ile-Phe-Ala [compound 9]
- specific reaction with Map specific anti serum [1]: react specifically

Compound: LipidC20-DPhe-NMeVal-Ile-Phe-Ala-OMe [L5P]
- O.D. in ELISA [2]: below 0.2
- anti-L5P IgA in sera [3]: no IgA was detected
- anti-L5P IgG1 in sera [3]: present
- anti-L5P IgG2 in sera [3]: present
- anti-L5P IgM in sera [3]: present
- reactivity with sera [4]: none was reacting
- OD in ELISA [1]: above 1,5
- specificity compared with PPD [1]: by far more specific than the PPD
- O.D. in ELISA [5]: below 0.2
